# Target: human F508del-CFTR (Homo sapiens, UniProt P13569, DEL508-508)
# Assay: F508del-CFTR cell surface expression (corrector activity), DiscoveRx ß-galactosidase complementation chemiluminescence assay in recombinant U2OS cell line;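 further: U2OS cells co-expressing ProLink-tagged F508del-CFTR and a membrane-anchored enzyme acceptor, where more surface CFTR restores β-galactosidase activity measured by chemiluminescence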
# Conditions: for EC50: EC50, F508del-CFTR cell surface expression; for Emax: U2OS
# [1] = U2OS cells, 16h compound incubation, geomean of several measurements
# [2] = in relation to the Emax of the corrector lumacaftor (=100%), U2OS cells, 16h compound incubation, arithmetic mean
# [3] = U2OS cells, 16h compound incubation, geomean values
# [4] = in relation to Emax of corrector lumacaftor (=100%), arithmetic mean values
# [5] = U2OS cell line, 16h compound incubation, geomean values
# [6] = in relation to the Emax of the corrector lumacaftor (=100%), U2OS cell line, 16h compound incubation, arithmetic mean values
# Sequence of human F508del-CFTR (P13569 with tags, fused parts or gaps DEL508-508): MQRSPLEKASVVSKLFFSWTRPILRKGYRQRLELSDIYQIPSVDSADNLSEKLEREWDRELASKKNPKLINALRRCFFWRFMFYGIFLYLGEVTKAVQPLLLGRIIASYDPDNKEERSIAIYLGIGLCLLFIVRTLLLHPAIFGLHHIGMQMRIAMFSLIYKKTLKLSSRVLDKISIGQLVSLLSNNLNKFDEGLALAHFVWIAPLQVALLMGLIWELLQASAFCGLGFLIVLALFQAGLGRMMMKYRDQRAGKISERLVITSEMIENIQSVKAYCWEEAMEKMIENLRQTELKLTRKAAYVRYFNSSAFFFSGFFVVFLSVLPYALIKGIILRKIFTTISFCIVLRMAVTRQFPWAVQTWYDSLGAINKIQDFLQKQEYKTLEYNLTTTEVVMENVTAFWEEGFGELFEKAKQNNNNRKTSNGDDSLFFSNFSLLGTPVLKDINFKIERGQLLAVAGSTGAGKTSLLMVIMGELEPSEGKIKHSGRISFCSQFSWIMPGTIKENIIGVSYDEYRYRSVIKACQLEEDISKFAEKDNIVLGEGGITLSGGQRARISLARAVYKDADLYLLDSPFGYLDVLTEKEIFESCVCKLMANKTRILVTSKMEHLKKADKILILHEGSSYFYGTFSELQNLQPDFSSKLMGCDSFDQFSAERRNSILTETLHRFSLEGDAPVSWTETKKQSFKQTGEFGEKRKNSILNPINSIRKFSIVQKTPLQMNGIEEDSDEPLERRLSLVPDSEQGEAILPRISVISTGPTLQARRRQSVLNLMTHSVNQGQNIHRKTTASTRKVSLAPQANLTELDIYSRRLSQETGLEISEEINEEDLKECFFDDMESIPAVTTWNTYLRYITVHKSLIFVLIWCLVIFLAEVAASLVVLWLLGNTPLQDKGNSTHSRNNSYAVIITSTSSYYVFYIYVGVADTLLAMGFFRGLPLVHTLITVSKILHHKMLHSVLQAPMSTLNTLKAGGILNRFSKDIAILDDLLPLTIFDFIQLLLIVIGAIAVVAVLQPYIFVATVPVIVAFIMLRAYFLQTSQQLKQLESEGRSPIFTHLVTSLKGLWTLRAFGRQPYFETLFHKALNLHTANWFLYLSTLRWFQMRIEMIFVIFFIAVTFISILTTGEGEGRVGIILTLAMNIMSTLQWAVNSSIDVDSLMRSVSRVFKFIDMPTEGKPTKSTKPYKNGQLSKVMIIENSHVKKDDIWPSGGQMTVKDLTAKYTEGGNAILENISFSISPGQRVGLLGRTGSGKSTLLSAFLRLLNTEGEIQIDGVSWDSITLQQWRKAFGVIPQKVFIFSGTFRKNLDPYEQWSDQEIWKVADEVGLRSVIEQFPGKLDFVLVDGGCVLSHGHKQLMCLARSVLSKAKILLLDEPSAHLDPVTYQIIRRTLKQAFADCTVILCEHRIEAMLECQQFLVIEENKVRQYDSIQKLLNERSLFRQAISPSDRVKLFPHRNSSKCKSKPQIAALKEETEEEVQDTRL
compound,measurement,setting,value
"CCOCC[C@@H]1C(=O)N[C@H](Cc2ccccc2)COc2cc(C)nc(OC)c2C(=O)N[C@H](C(=O)NCCc2cc(OC)no2)CC(=O)N(C)[C@@H](CC(C)C)C(=O)N1C [Example 877, (3R,6R,9S,13S)-3-benzyl-6-(2-ethoxyethyl)-9-isobutyl-16-methoxy-N-(2-(3-methoxyisoxazol-5-yl)ethyl)-7,10,18-trimethyl-5,8,11,15-tetraoxo-2,3,4,5,6,7,8,9,10,11,12,13,14,15-tetradecahydropyrido[3,4-p][1]oxa[4,7,10,14]tetraazacycloheptadecine-13-carboxamide]",EC50,[1],186 nM
same,Emax,[2],361%
"CC(C)C[C@H]1C(=O)N(C)C2(CC2)C(=O)N[C@H](Cc2ccccc2)COc2ccc3ncc(F)cc3c2C(=O)N[C@H](C(=O)NCCc2noc(C3CC3)n2)CC(=O)N1C [Example 546, (3′S,7′S,13′R)-13′-benzyl-N-(2-(5-cyclopropyl-1,2,4-oxadiazol-3-yl)ethyl)-20′-fluoro-7′-isobutyl-6′,9′-dimethyl-1′,5′,8′,11′-tetraoxo-2′,3′,4′,5′,6′,7′,8′,9′,11′,12′,13′,14′-dodecahydro-1′H-spiro[cyclopropane-1,10′-[1]oxa[4,7,10,14]tetraazacycloheptadecino[16,17-f]quinoline]-3′-carboxamide]",EC50,[3],350 nM
same,Emax,[4],411%
"Cc1cccc(CCNC(=O)[C@@H]2CC(=O)N(C)[C@@H](CC(C)C)C(=O)N3CCCC[C@@H]3C(=O)N[C@H](Cc3ccccc3)COc3cnc4ccccc4c3C(=O)N2)c1 [Example 96, (9S,13S,19aR,22R)-22-benzyl-13-isobutyl-12-methyl-N-(3-methylphenethyl)-7,11,14,20-tetraoxo-7,8,9,10,11,12,13,14,17,18,19,19a,20,21,22,23-hexadecahydro-16H-pyrido[2′,1′:6,7][1]oxa[4,7,10,14]tetraazacycloheptadecino[17,16-c]quinoline-9-carboxamide]",EC50,[5],425 nM
same,Emax,[6],206%
"Cc1cc2c3c(ccc2cn1)OC[C@@H](Cc1ccccc1)NC(=O)C1(CC1)N(C)C(=O)[C@H](CC(C)C)N(C)C(=O)C[C@@H](C(=O)NCCc1noc(C2CC2)n1)NC3=O [Example 900, (3′S,7′S,13′R)-13′-benzyl-N-(2-(5-cyclopropyl-1,2,4-oxadiazol-3-yl)ethyl)-7′-isobutyl-6′,9′,20′-trimethyl-1′,5′,8′,11′-tetraoxo-2′,3′,4′,5′,6′,7′,8′,9′,11′,12′,13′,14′-dodecahydro-1′H-spiro[cyclopropane-1,10′-[1]oxa[4,7,10,14]tetraazacycloheptadecino[16,17-f]isoquinoline]-3′-carboxamide]",EC50,[1],831 nM
same,Emax,[2],374%
"CCc1nc(CCNC(=O)[C@@H]2CC(=O)N(C)[C@@H](CC(C)C)C(=O)N(C)C3(CC3)C(=O)N[C@H](Cc3ccccc3)COc3cnc4ccccc4c3C(=O)N2)no1 [Example 114, (3′S,7′S,13′R)-13′-benzyl-N-(2-(5-ethyl-1,2,4-oxadiazol-3-yl)ethyl)-7′-isobutyl-6′,9′-dimethyl-1′,5′,8′,11′-tetraoxo-2′,3′,4′,5′,6′,7′,8′,9′,11′,12′,13′,14′-dodecahydro-1′H-spiro[cyclopropane-1,10′-[1]oxa[4,7,10,14]tetraazacycloheptadecino[17,16-c]quinoline]-3′-carboxamide]",EC50,[5],924 nM
same,Emax,[6],220%
"COc1cccc(CCNC(=O)[C@@H]2CC(=O)N(C)[C@@H](CC(C)C)C(=O)N3CCN(CC(C)C)C[C@@H]3C(=O)N[C@H](Cc3ccccc3)COc3ccc4ncn(C)c4c3C(=O)N2)c1 [Example 364, (8S,12S,18aR,21R)-21-benzyl-12,17-diisobutyl-N-(3-methoxyphenethyl)-5,11-dimethyl-6,10,13,19-tetraoxo-6,7,8,9,10,11,12,13,16,17,18,18a,19,20,21,22-hexadecahydro-5H,15H-imidazo[4′,5′:5,6]benzo[1,2-p]pyrazino[2,1-f][1]oxa[4,7,10,14]tetraazacycloheptadecine-8-carboxamide]",EC50,[5],264 nM
same,Emax,[6],201%
"COc1cc(CCNC(=O)[C@@H]2CC(=O)N(C)[C@@H](CC(C)C)C(=O)N(C)[C@H](CC3CCC3)C(=O)N[C@H](Cc3ccccc3)COc3cc(C)nc(OC)c3C(=O)N2)on1 [Example 980, (3R,6R,9S,13S)-3-benzyl-6-(cyclobutylmethyl)-9-isobutyl-16-methoxy-N-(2-(3-methoxyisoxazol-5-yl)ethyl)-7,10,18-trimethyl-5,8,11,15-tetraoxo-2,3,4,5,6,7,8,9,10,11,12,13,14,15-tetradecahydropyrido[3,4-p][1]oxa[4,7,10,14]tetraazacycloheptadecine-13-carboxamide]",EC50,[1],53 nM
same,Emax,[2],435%
"COc1noc(CCNC(=O)[C@@H]2CC(=O)N(C)[C@@H](CC(C)C)C(=O)N3CCCC[C@@H]3C(=O)N[C@H](Cc3ccccc3)COc3cc(C)nc(OC)c3C(=O)N2)c1F [Example 766, (7S,11S,17aR,20R)-20-benzyl-N-(2-(4-fluoro-3-methoxyisoxazol-5-yl)ethyl)-11-isobutyl-4-methoxy-2,10-dimethyl-5,9,12,18-tetraoxo-5,6,7,8,9,10,11,12,15,16,17,17a,18,19,20,21-hexadecahydro-14H-dipyrido[2,1-f:3′,4′-p][1]oxa[4,7,10,14]tetraazacycloheptadecine-7-carboxamide]",EC50,[3],154 nM
same,Emax,[4],393%
"CC(C)C[C@H]1C(=O)N2CCCC[C@@H]2C(=O)N[C@H](Cc2ccccc2)COc2cnc3ccccc3c2C(=O)N[C@H](C(=O)NCCc2ccccc2)CC(=O)N1C [Example 77, (9S,13S,19aR,22R)-22-benzyl-13-isobutyl-12-methyl-7,11,14,20-tetraoxo-N-phenethyl-7,8,9,10,11,12,13,14,17,18,19,19a,20,21,22,23-hexadecahydro-16H-pyrido[2′,1′:6,7][1]oxa[4,7,10,14]tetraazacycloheptadecino[17,16-c]quinoline-9-carboxamide]",EC50,[5],231 nM
same,Emax,[6],237%
"COc1cc2c(cc1OC)C(=O)N[C@H](C(=O)NCCc1ccc3ccoc3c1)CC(=O)N(C)[C@@H](CC(C)C)C(=O)N(C)CC(=O)N[C@H](Cc1ccccc1)CO2 [Example 4, (3R,9S,13S)-N-(2-(benzofuran-6-yl)ethyl)-3-benzyl-9-isobutyl-17,18-dimethoxy-7,10-dimethyl-5,8,11,15-tetraoxo-2,3,4,5,6,7,8,9,10,11,12,13,14,15-tetradecahydrobenzo[p][1]oxa[4,7,10,14]tetraazacycloheptadecine-13-carboxamide]",EC50,[5],673 nM
same,Emax,[6],195%
"CC(C)C[C@H]1C(=O)N2CCCC[C@@H]2C(=O)N[C@H](Cc2ccccc2)COc2ccc3ncc(F)cc3c2C(=O)N[C@H](C(=O)NCCc2noc(C3CC3)n2)CC(=O)N1C [Example 541, (9S,13S,19aR,22R)-22-benzyl-N-(2-(5-cyclopropyl-1,2,4-oxadiazol-3-yl)ethyl)-5-fluoro-13-isobutyl-12-methyl-7,11,14,20-tetraoxo-7,8,9,10,11,12,13,14,17,18,19,19a,20,21,22,23-hexadecahydro-16H-pyrido[2′,1′:6,7][1]oxa[4,7,10,14]tetraazacycloheptadecino[16,17-f]quinoline-9-carboxamide]",EC50,[3],185 nM
same,Emax,[4],357%

# — patent publication US20240208992A1, “MACROCYCLES AS CFTR MODULATORS” (Idorsia Pharmaceuticals Ltd, priority 2021, published 2024)
